Source: patent publication US9532519B2, “Plant growth regulator and use thereof” (Japan Science and Technology Agency, priority 2006, dated 2017)
Read-outs that look alike come from different tables or passages of the source.

Tests used:
[1] = test system: Rose saplings (breed; JJ scarlet and JJ apricot); experiment: Effect 2 on promoting growth of sprout and floral bud of rose (JJ scarlet and JJ apricot); format: in vivo; settings: 50 mL of 0.5 mM-GSSG two times a week; fourth and eighth day from the fertilization
Protocol: Rose saplings (breed; JJ scarlet and JJ apricot) were purchased at a hardware store and cultivated in pods for rice hydroponics. The rose saplings were fertilized with 50 mL of a 0.5 mM-GSSG solution in the form of a liquid fertilizer two times a week.
In (a)-(d) of FIG. 35, the breeds of three plants are JJ scarlet, JJ apricot, and JJ scarlet, respectively from the left.

Tsai-hsin = experiment: Influence of oxidized glutathione on growth of tsai-hsin, agricultural field; format: in vivo; settings: 0.5 mM- or 5 mM-GSSG sprayed to leaves two times a week, 1 L per zone (3 m^2)
From the text: Tsai-hsin was cultivated for two weeks, and then transferred to an agricultural field and grown with or without the treatment with GSSG. Tsai-hsin was fertilized with a nitrogen fertilizer that was KUMIAI RIN […] S604 in a ratio of 20 kgN per 10 are, and was additionally fertilized with 5 kgN 3 weeks later.

[2] = test system: Soybean (breed: Tsurumusume) and soybean (breed; Toyomusume); experiment: Influence of oxidized glutathione on growth and yield of seeds of soybean, agricultural field; format: in vivo; settings: 0.5 mM-GSSG, 50 mL per individual two times a week at base of stem; each breed
Protocol: The soybean was fertilized with a nitrogen fertilizer that was KUMIAI RIN […] S604 in a ratio of 20 kgN per 10 are, and was additionally fertilized with 5 kgN 3 weeks later.
Further, in a GSSG-treated management zone, a 0.5 mM-GSSG solution was given to the base of a stem (see the arrow in FIG. 21) in the amount of 50 mL per one individual two times a week in such a manner that the solution flowed along the stem.
In a case where it was likely to rain, the GSSG solution was supplied to the plant after the rain. Similarly, in a case of watering, the GSSG solution was supplied to the plant after the watering. When the harvest time of the plant of the control (i.e. normal nitrogen management zone) was coming, supply of the GSSG solution to the plant in the GSSG-treated management zone was stopped.
The seed weight, the amount of biomass, and the harvest index of the plant thus obtained in the GSSG-treated management zone, each relative to that of the plant in the normal nitrogen management zone, were measured.

Arabidopsis [3] = settings: in vivo
Arabidopsis [4] = experiment: Influence 5 of treatment condition on Arabidopsis: seed weight, dry weight, harvest index; format: in vivo
Protocol: Seeds of Arabidopsis were sown in pods filled with soil immersed in water. The pods were transferred to trays filled with water containing 0.2 mM-GSSG or 1 mM-GSSG and cultivated there only for two weeks that were the first and second weeks (0th-14th day), the third and fourth weeks (15th-28th day), the fifth and sixth weeks (29th-42nd day), or the seventh and eighth weeks (43rd-56th day) after the sowing. That is, Arabidopsis were treated with 0.2 mM-GSSG or 1 mM-GSSG only for two weeks in a specific growth period.
(§1) Arabidopsis was cultivated under the same conditions as those described in <1. Influence of oxidized glutathione on growth of Arabidopsis> except for the above condition.
The seed weight, dry weight, and harvest index of Arabidopsis thus cultivated (three plants in each pod) were measured and an average of three pods was calculated.

[5] = test system: Rose (breed; Patiohit alicante); experiment: Influence of oxidized glutathione on growth of rose (Patiohit alicante); format: in vivo; settings: 50 mL of 0.5 mM-GSSG two times a week for four months, then pruned
Protocol: Rose (breed; Patiohit alicante) was fertilized with 50 mL of 0.5 mM-GSSG solution two times a week for four months and then pruned completely and cultivated.

Sweet corn [6] = experiment: Effect 4 of oxidized glutathione on productivity of corn (method and time of treatment); format: in vivo; settings: 20 mL of 0.2 mM-GSSG each time, to roots or sprayed to stem and leaves; any of the treatment times
Protocol: (§2) Sweet corn was cultivated under the same conditions as those of <15.
Harvest index of the plant thus obtained was measured.

Arabidopsis [7] = experiment: Influence 4 of treatment condition on seeds of Arabidopsis (two weeks of 1 mM-GSSG); format: in vivo; settings: 1 mM-GSSG only for two weeks in a specific growth period
Protocol: Seeds of Arabidopsis were sown in pods filled with soil immersed in water. The pods were transferred to trays filled with water containing 1 mM-GSSG and cultivated there only for two weeks that are the first and second weeks (0th-14th day), the second and third weeks (8th-21st day), the third and fourth weeks (15th-28th day), the fourth and fifth weeks (22nd-35th day), the fifth and sixth weeks (29th-42nd day), or the sixth and seventh weeks (36th-49th day) after the sowing. That is, Arabidopsis were treated with 1 mM-GSSG only for two weeks in a specific growth period.
as §1
(§3) The seed weight per one pod, obtained from Arabidopsis thus cultivated (three plants in each pod), was measured.

[8] = test system: strawberry (breed; Eminent garden series, Yokubari-ichigo kurenai (SUMIKA)); experiment: Effect of oxidized glutathione on growth of strawberry (number of runners); format: in vivo; settings: 50 mL of 0.5 mM-GSSG two times a week; four months after the fertilization; Cont zone two or three runners
Arabidopsis [9] = experiment: Influence 2 of treatment condition on seeds of Arabidopsis (start time of 1 mM-GSSG); format: in vivo; settings: regardless of the time of treating
Protocol: Seeds of Arabidopsis were sown in pods filled with soil immersed in water. The pods were transferred to trays with water containing 1 mM-GSSG 2 days after, 1 week after, 2 weeks after, 3 weeks after, 4 weeks after, 5 weeks after, 6 weeks after, or 7 weeks after the sowing.
as §1, §3

Arabidopsis seeds = experiment: Germination rate (ripeness) of seeds from Arabidopsis cultivated with oxidized glutathione; format: in vivo
From the text: Ripeness of seeds obtained from Arabidopsis cultivated with oxidized glutathione was examined.

[10] = test system: transformants of Arabidopsis to which the gFBA gene was introduced and wild-type Arabidopsis (Columbia; Col); experiment: Influence 3 of oxidized glutathione on gFBA transformant Arabidopsis (GSSG only, 0 mM to 5 mM); format: in vivo; settings: only GSSG as liquid fertilizer
From the text: This tendency was more clearly observed in the transformants of Arabidopsis to which the gFBA gene was introduced.

Sweet corn [11] = experiment: Effect 3 of oxidized glutathione on productivity of corn (foliar spray); format: in vivo; settings: GSSG sprayed to a stem and leaves four times in two weeks after six weeks from the sowing
Protocol: as §2
The amount of fruits and the amount of biomass of ground parts of the plant thus obtained were measured with respect to each plant and harvest index was calculated.

Arabidopsis [12] = experiment: Effect of concentration of oxidized glutathione on growth of Arabidopsis; format: in vivo
Protocol: Specifically, soil filled in a pod of approximately 65 in width, 65 in depth, and 50 in height was immersed in 0 mM-, 0.01 mM-, 0.2 mM-, 1 mM-, 2 mM-, and 5 mM-GSSG solutions. Seeds of Arabidopsis were sown in such a manner that approximately three seeds existed in each pod, and the seeds were observed chronologically 3 weeks after the sowing.

[13] = soil immersed in 0-5 mM GSSG solutions

oxidized glutathione [GSSG]
growth of sprout vs not treated [1]: promoted growth of sprout | amount of growth vs normal nitrogen management zone (Tsai-hsin): significant increase in the amount of growth | amount of biomass vs normal nitrogen management zone [2]: higher | harvest index vs normal nitrogen management zone [2]: higher | seed weight vs normal nitrogen management zone [2]: higher | seed weight per one pod vs not treated (Arabidopsis [3]): significantly increased the seed weight | dry weight vs not treated (Arabidopsis [4]; 0.2 mM-GSSG): increased little | harvest index vs not treated (Arabidopsis [4]; 0.2 mM-GSSG): increased | seed weight vs not treated (Arabidopsis [4]; 0.2 mM-GSSG): increased | dry weight vs not treated (Arabidopsis [4]; 1 mM-GSSG): evidently increased | seed weight vs not treated (Arabidopsis [4]; 1 mM-GSSG): evidently increased | harvest index vs not treated (Arabidopsis [4]; 1 mM-GSSG, except when treated 1 or 2 weeks after the sowing): evidently increased | growth of new floral buds vs not treated [5]: significant promotion of growth of new floral buds | harvest index vs not treated (Sweet corn [6]): significantly increased | seed weight per one pod vs not treated (Arabidopsis [7]): significantly increased the seed weight | number of runners per one stock [8]: several ten runners per one stock | seed weight per one pod vs no treatment (Arabidopsis [9]): more seed weight | germination rate (Arabidopsis seeds; 2 days after the sowing): significantly high | germination rate, difference from seeds of plants cultivated normally (Arabidopsis seeds; 7 days after the sowing): almost no difference | germination speed of seeds of treated plants vs plants cultivated normally (Arabidopsis seeds; seeds sown in 1/2 MS culture media): germinated faster | effects of increasing seed weight and harvest index compared with ammonium nitrate [10]: greatly larger than the maximum effects yielded by fertilization with nitrogen resulting from ammonium nitrate | concentration of GSSG at which the effect on harvest index was saturated ([10]; 0 mM to 5 mM): approximately 2 mM | seed weight as function of GSSG concentration ([10]; 0 mM to 5 mM): increased as concentration of GSSG increased, and the effect was not saturated at the tested concentration | amount of fruits, amount of biomass of ground parts and harvest index of each plant (Sweet corn [11]): increased the amount of fruits, the amount of biomass of ground parts, and the harvest index | difference from Arabidopsis cultivated with water (0 mM) (Arabidopsis [12]; 0.01 mM GSSG): almost no difference | concentration at which making a leaf rounder and lengthening the life of a plant were clearly observed (Arabidopsis [12]; [13]): 0.2 to 2 mM | concentration at which making a stem thicker was observed (Arabidopsis [12]; [13]): 1 to 2 mM
